Here are results for 29 compounds from US20050261332A1, “Sulfonamides and uses thereof” (priority 2004, published 2005).

A word on the Ki: it is the equilibrium dissociation constant of an inhibitor or competing ligand from its target. A higher Ki goes with a looser hold on the target.

This experiment deals with T1, GHS-R (Homo sapiens, UniProt Q92847).
T1 construct: expressed in transfected cells; host or cells: COS-7 cells
T1 sequence (Q92847 whole entry, species assumed): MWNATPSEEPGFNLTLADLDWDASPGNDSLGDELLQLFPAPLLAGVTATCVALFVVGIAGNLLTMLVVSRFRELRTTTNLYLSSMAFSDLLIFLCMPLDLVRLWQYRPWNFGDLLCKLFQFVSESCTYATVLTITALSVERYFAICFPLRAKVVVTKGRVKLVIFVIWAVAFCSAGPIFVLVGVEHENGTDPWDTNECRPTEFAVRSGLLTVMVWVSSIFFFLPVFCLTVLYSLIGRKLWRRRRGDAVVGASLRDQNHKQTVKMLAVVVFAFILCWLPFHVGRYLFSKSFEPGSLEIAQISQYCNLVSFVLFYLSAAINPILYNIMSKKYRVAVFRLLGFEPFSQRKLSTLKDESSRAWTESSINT
Kind of experiment: GHS-R competition binding assay (Ki of GHS-R antagonizing compounds). Summed up: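 COS-7 cells expressing GHS-R (1×10^5 cells/well) competed against 25 pM ^125I-ghrelin for 3 hours at 4° C in 50 mM HEPES pH 7.4 with 1 mM CaCl2, 5 mM MgCl2, 0.1% BSA, bacitracin. Nonspecific binding with […]; bound radioactivity counted after washing and lysis. Ki=IC50/(1+L/Kd).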
In turn, `CCN(CC)CCCS(=O)(=O)N[C@H](CCc1ccccc1)C(=O)c1ccc(-c2ccccc2C(=O)NC)cc1` [Compound 186, (R)-4′-(2-(3-(diethylamino)propylsulfonamido)-4-phenylbutanoyl)-N-methylbiphenyl-2-carboxamide] showed a Ki of 0.1 to 1 µM.
`CCN(CC)CCCS(=O)(=O)N[C@H](CCc1ccccc1)C(=O)NCc1ccc(-c2ccccc2CNC(=O)NC)cc1` [Compound 187, (R)-2-(3-(diethylamino)propylsulfonamido)-N-((2′-((3-methylureido)methyl)biphenyl-4-yl)methyl)-4-phenylbutanamide]: the Ki was 0.1 to 1 µM.
With `CCN(CC)CCCS(=O)(=O)N[C@H](CCc1ccccc1)C(=O)NCc1ccc(-c2ccccc2CNC(=O)NCCO)cc1` [Compound 188, (R)-2-(3-(diethylamino)propylsulfonamido)-N-((2′-((3-(2-hydroxyethyl)ureido)methyl)biphenyl-4-yl)methyl)-4-phenylbutanamide], the Ki is less than 0.1 µM.
`CCN(CC)CCCS(=O)(=O)N[C@H](CCc1ccccc1)C(=O)NCc1ccc(-c2ccccc2C(N)=O)cc1` [Compound 189, (R)-4′-{[2-(3-Diethylamino-propane-1-sulfonylamino)-4-phenyl-butyrylamino]-methyl}-biphenyl-2-carboxylic acid amide] had a Ki of less than 0.1 µM.
The result for `CCN(CC)CCCS(=O)(=O)N[C@H](CCc1ccccc1)C(=O)c1ccc(-c2ccccc2CNC(=O)OC(C)(C)C)cc1` [Compound 190, (R)-tert-butyl (4′-(2-(3-(diethylamino)propylsulfonamido)-4-phenylbutanoyl)biphenyl-2-yl)methylcarbamate] reads 0.1 to 1 µM; that for `CCN(CC)CCCS(=O)(=O)N[C@H](CCc1ccccc1)C(=O)c1ccc(-c2ccccc2CN)cc1` [Compound 191, (R)-N-(1-(2′-(aminomethyl)biphenyl-4-yl)-1-oxo-4-phenylbutan-2-yl)-3-(diethylamino)propane-1-sulfonamide], 0.1 to 1 µM.
As to `CCN(CC)CCCS(=O)(=O)N[C@H](CCc1ccccc1)C(=O)c1ccc(-c2ccccc2CNC(C)=O)cc1` [Compound 192, (R)-N-((4′-(2-(3-(diethylamino)propylsulfonamido)-4-phenylbutanoyl)biphenyl-2-yl)methyl)acetamide], the Ki is less than 0.1 µM.
As to `CCNC(=O)NCc1ccccc1-c1ccc(CNC(=O)[C@@H](CCc2ccccc2)NS(=O)(=O)CCCN(CC)CC)cc1` [Compound 193, (R)-2-(3-(diethylamino)propylsulfonamido)-N-((2′-((3-ethylureido)methyl)biphenyl-4-yl)methyl)-4-phenylbutanamide], the Ki was less than 0.1 µM.
In turn, `CCN(CC)CCS(=O)(=O)N[C@H](CCc1ccccc1)C(=O)c1ccc(-c2ccccc2CNC(=O)OC(C)(C)C)cc1` [Compound 194, (R)-tert-butyl (4′-(2-(2-(diethylamino)ethylsulfonamido)-4-phenylbutanoyl)biphenyl-2-yl)methylcarbamate] had a Ki of 0.1 to 1 µM.
Then `C=C(C)C(=O)OCCNC(=O)NCc1ccccc1-c1ccc(C(=O)[C@@H](CCc2ccccc2)NS(=O)(=O)CCCN(CC)CC)cc1` [Compound 195, (R)-2-(3-((4′-(2-(3-(diethylamino)propylsulfonamido)-4-phenylbutanoyl)biphenyl-2-yl)methyl)ureido)ethyl methacrylate], with less than 0.1 µM; and `CCN(CC)CCCS(=O)(=O)N[C@H](CCc1ccccc1)C(=O)c1ccc(-c2ccccc2CNC(=O)NC)cc1` [Compound 196, (R)-3-(diethylamino)-N-(1-(2′-((3-methylureido)methyl)biphenyl-4-yl)-1-oxo-4-phenylbutan-2-yl)propane-1-sulfonamide], with less than 0.1 µM; and `CCNC(=O)NCc1ccccc1-c1ccc(C(=O)[C@@H](CCc2ccccc2)NS(=O)(=O)CCCN(CC)CC)cc1` [Compound 197, (R)-3-(diethylamino)-N-(1-(2′-((3-ethylureido)methyl)biphenyl-4-yl)-1-oxo-4-phenylbutan-2-yl)propane-1-sulfonamide], with less than 0.1 µM.
For the compound `CCN(CC)CCCS(=O)(=O)N[C@H](CCc1ccccc1)C(=O)c1ccc(-c2ccccc2CNC(=O)NCCO)cc1` [Compound 198, (R)-3-(diethylamino)-N-(1-(2′-((3-(2-hydroxyethyl)ureido)methyl)biphenyl-4-yl)-1-oxo-4-phenylbutan-2-yl)propane-1-sulfonamide], the Ki is less than 0.1 µM.
`CCN(CC)CCS(=O)(=O)N[C@@H](COCc1ccccc1)C(=O)N1CCC2(CC1)CN(S(C)(=O)=O)c1ccccc12` [Compound 199, (S)-N-(3-(benzyloxy)-1-(1-(methylsulfonyl)spiro[indoline-3,4′-piperidine]-1′-yl)-1-oxopropan-2-yl)-2-(diethylamino)ethanesulfonamide] returned a Ki of less than 0.1 µM.
The compound `CCN(CC)CCCS(=O)(=O)N[C@H](CCc1ccccc1)C(=O)NCc1ccc(-c2ccccc2NC(=O)NC)cc1` [Compound 200, (R)-2-(3-(diethylamino)propylsulfonamido)-N-((2′-(3-methylureido)biphenyl-4-yl)methyl)-4-phenylbutanamide] had a Ki of 0.1 to 1 µM.
In turn, `CCN(CC)CCS(=O)(=O)N[C@H](CCc1ccccc1)C(=O)c1ccc(-c2ccccc2CNC(=O)NCCO)cc1` [Compound 201, (R)-2-(diethylamino)-N-(1-(2′-((3-(2-hydroxyethyl)ureido)methyl)biphenyl-4-yl)-1-oxo-4-phenylbutan-2-yl)ethanesulfonamide] came in with a Ki of less than 0.1 µM.
Compound `C=C(C)C(=O)OCCNC(=O)NCc1ccccc1-c1ccc(C(=O)[C@@H](CCc2ccccc2)NS(=O)(=O)CCN(CC)CC)cc1` [Compound 202, (R)-2-(3-((4′-(2-(2-(diethylamino)ethylsulfonamido)-4-phenylbutanoyl)biphenyl-2-yl)methyl)ureido)ethyl methacrylate] gave a Ki of 0.1 to 1 µM.
`CCN(CC)CCS(=O)(=O)N[C@H](CCc1ccccc1)C(=O)c1ccc(-c2ccccc2CN)cc1` [Compound 203, (R)-N-(1-(2′-(aminomethyl)biphenyl-4-yl)-1-oxo-4-phenylbutan-2-yl)-2-(diethylamino)ethanesulfonamide]: the Ki was 0.1 to 1 µM.
Compound `CCN(CC)CCS(=O)(=O)N[C@H](CCc1ccccc1)C(=O)c1ccc(-c2ccccc2CNC(C)=O)cc1` [Compound 204, (R)-N-((4′-(2-(2-(diethylamino)ethylsulfonamido)-4-phenylbutanoyl)biphenyl-2-yl)methyl)acetamide] returned a Ki of less than 0.1 µM.
On to `CCNC(=O)NCc1ccccc1-c1ccc(C(=O)[C@@H](CCc2ccccc2)NS(=O)(=O)CCN(CC)CC)cc1` [Compound 205, (R)-2-(diethylamino)-N-(1-(2′-((3-ethylureido)methyl)biphenyl-4-yl)-1-oxo-4-phenylbutan-2-yl)ethanesulfonamide], for which the Ki was less than 0.1 µM.
In the case of `CCN(CC)CCCS(=O)(=O)N[C@H](CCc1ccccc1)C(=O)NCc1ccc(-c2ccccc2CCNC(=O)NC)cc1` [Compound 206, (R)-2-(3-(diethylamino)propylsulfonamido)-N-((2′-(2-(3-methylureido)ethyl)biphenyl-4-yl)methyl)-4-phenylbutanamide], the Ki was less than 0.1 µM.
With `CCN(CC)CCCS(=O)(=O)N[C@H](CCc1ccccc1)C(=O)NCc1ccc(-c2ccccc2CO)cc1` [Compound 207, (R)-2-(3-(diethylamino)propylsulfonamido)-N-((2′-(hydroxymethyl)biphenyl-4-yl)methyl)-4-phenylbutanamide], the Ki was less than 0.1 µM.
`CCN(CC)CCCS(=O)(=O)N[C@H](CCc1ccccc1)C(=O)NCc1ccc(-c2ccccc2COC(=O)NC)cc1` [Compound 208, (R)-Methyl-carbamic acid 4′-{[2-(3-diethylamino-propane-1-sulfonylamino)-4-phenyl-butyrylamino]-methyl}-biphenyl-2-ylmethyl ester] displayed an inhibitory constant (Ki) of less than 0.1 µM.
For the compound `CCN(CC)CCS(=O)(=O)N[C@H](CCc1ccccc1)C(=O)c1ccc(-c2ccccc2CNC(=O)NC)cc1` [Compound 209, (R)-2-(diethylamino)-N-(1-(2′-((3-methylureido)methyl)biphenyl-4-yl)-1-oxo-4-phenylbutan-2-yl)ethanesulfonamide], the Ki was less than 0.1 µM.
For the compound `CCN(CC)CCCS(=O)(=O)N[C@@H](COCc1ccccc1)C(=O)N1CCC2(CC1)CN(S(C)(=O)=O)c1ccccc12` [Compound 210, (S)-N-(3-(benzyloxy)-1-(1-(methylsulfonyl)spiro[indoline-3,4′-piperidine]-1′-yl)-1-oxopropan-2-yl)-3-(diethylamino)propane-1-sulfonamide], the Ki is 0.1 to 1 µM.
`CCN(CC)CCCS(=O)(=O)N[C@@H](CCc1ccccc1)C(=O)N1CCC2(CC1)CN(S(C)(=O)=O)c1ccccc12` [Compound 211, (S)-3-(diethylamino)-N-(1-(1-(methylsulfonyl)spiro[indoline-3,4′-piperidine]-1′-yl)-1-oxo-4-phenylbutan-2-yl)propane-1-sulfonamide] showed a Ki of less than 0.1 µM.
As to `CCN(CC)CCS(=O)(=O)N[C@H](CCc1ccccc1)C(=O)c1ccc(-c2ccccc2CCNC(=O)NC)cc1` [Compound 212, (R)-2-(diethylamino)-N-(1-(2′-(2-(3-methylureido)ethyl)biphenyl-4-yl)-1-oxo-4-phenylbutan-2-yl)ethanesulfonamide], the Ki was less than 0.1 µM.
Then `CCN(CC)CCCS(=O)(=O)N[C@H](COCc1ccccc1)C(=O)NCc1ccc(-c2ccccc2CN)cc1` [Compound 213, (R)-N-(2′-Aminomethyl-biphenyl-4-ylmethyl)-3-benzyloxy-2-(3-diethylamino-propane-1-sulfonylamino)-propionamide], with 0.1 to 1 µM; and `CCN(CC)CCCS(=O)(=O)N[C@H](COCc1ccccc1)C(=O)NCc1ccc(-c2ccccc2CNC(=O)NC)cc1` [Compound 214, (R)-3-Benzyloxy-2-(3-diethylamino-propane-1-sulfonylamino)-N-{2′[(3-methyl-ureido)-methyl]-biphenyl-4-ylmethyl}-propionamide], with 0.1 to 1 µM.
